For orientation: melting point means the temperature, or range, at which the solid turns liquid.

In turn, `CCCC1=C(C#N)C(c2ccccc2Cl)c2c(n[nH]c2C(C)(C)C)N1` (stereo not drawn) [Example 310, 3-t-Butyl-4-(2-chlorophenyl)-5-cyano-4,7-dihydro-6-propyl-2H-pyrazolo[3,4-b]pyridine] yielded a melting point of more than 270 °C.

For the compound `CCCC1=C(C(=O)OCC)C(c2ccc3ccccc3c2)c2c[nH]nc2N1.O=C(O)/C=C\C(=O)O` (stereo not drawn) [Example 67, Ethyl 4,7-dihydro-4-(naphthalen-2-yl)-6-propyl-2H-pyrazolo[3,4-b]pyridine-5-carboxylate maleate], the melting point was in the range of 136 to 138 °C.

The compound `CC(C)C1=C(C#N)C(c2ccccc2Cl)c2c[nH]nc2N1` (stereo not drawn) [Example 203, 4-(2-Chlorophenyl)-5-cyano-4,7-dihydro-6-isopropyl-2H-pyrazolo[3,4-b]pyridine] gave a melting point of more than 250 °C.

For the compound `CCCC1=C(C(=O)OCC)C(c2ccccc2Cl)c2cnn(C(C)=O)c2N1` (stereo not drawn) [Example 224, Ethyl 1-acetyl-4-(2-chlorophenyl)-4,7-dihydro-6-propyl-1H-pyrazolo[3,4-b]pyridine-5-carboxylate], the melting point lay within 75 to 76 °C.

`CC(=O)N1CCC(C2=C(C#N)C(c3cccc(C#N)c3Br)c3c[nH]nc3N2)CC1` (stereo not drawn) [Example 1051, 6-(1-Acetylpiperidin-4-yl)-4-(2-bromo-3-cyanophenyl)-5-cyano-4,7-dihydro-2H-pyrazolo[3,4-b]pyridine]: the melting point was more than 280 °C.

Compound `CCOC(=O)C1=C(c2cccs2)Nc2n[nH]cc2C1c1ccccc1Cl` (stereo not drawn) [Example 87, Ethyl 4-(2-chlorophenyl)-4,7-dihydro-6-(thiophen-2-yl)-2H-pyrazolo[3,4-b]pyridine-5-carboxylate] yielded a melting point of 200 °C.

Compound `N#CC1=C(c2ccncc2)Nc2n[nH]cc2C1c1cccc2nonc12` (stereo not drawn) [Example 166, 4-(2,1,3-Benzoxadiazol-4-yl)-5-cyano-4,7-dihydro-6-(pyridin-4-yl)-2H-pyrazolo[3,4-b]pyridine] registered a melting point of 236 °C.

In turn, `CC1=C(C#N)C(c2cccc3nonc23)c2c[nH]nc2N1` (stereo not drawn) [Example 176, 4-(2,1,3-Benzoxadiazol-4-yl)-5-cyano-4,7-dihydro-6-methyl-2H-pyrazolo[3,4-b]pyridine] showed a melting point of 212 °C.

For `CCCC1=C(C#N)C(c2ccccc2Cl)c2c(n[nH]c2C(C)C)N1` (stereo not drawn) [Example 315, 4-(2-Chlorophenyl)-5-cyano-4,7-dihydro-6-propyl-3-isopropyl-2H-pyrazolo[3,4-b]pyridine], the melting point was more than 270 °C.

For the compound `Cl.N#CC1=C(C2CCNCC2)Nc2n[nH]cc2C1c1cccc2nonc12` (stereo not drawn), the melting point was more than 270 °C.

Consider `N#CC1=C(C2CCCNC2)Nc2n[nH]cc2C1c1cccc(C#N)c1Br.O=C(O)C(F)(F)F` (stereo not drawn), for which the melting point was 225 °C.

`N#CC1=C(c2ccccc2)Nc2n[nH]cc2C1c1ccccc1[N+](=O)[O-]` (stereo not drawn) [Example 154, 5-Cyano-4,7-dihydro-4-(2-nitrophenyl)-6-phenyl-2H-pyrazolo[3,4-b]pyridine] registered a melting point of 221 °C.

`CCCC1=C(C(=O)OCC)C(c2ccccc2Cl)c2c[nH]nc2N1` (stereo not drawn) [Example 27, Ethyl 4-(2-chlorophenyl)-4,7-dihydro-6-propyl-2H-pyrazolo[3,4-b]pyridine-5-carboxylate] had a melting point of 202 to 205 °C.

With `N#CC1=C(c2cc3ccccc3o2)Nc2n[nH]cc2C1c1cccc2nonc12` (stereo not drawn) [Example 175, 6-(Benzo[b]furan-2-yl)-4-(2,1,3-benzoxadiazol-4-yl)-5-cyano-4,7-dihydro-2H-pyrazolo[3,4-b]pyridine], the melting point was more than 270 °C.

In turn, `CCCC1=C(C(=O)OCC)C(c2ccccc2N)c2c[nH]nc2N1` (stereo not drawn) [Example 99, Ethyl 4-(2-aminophenyl)-4,7-dihydro-6-propyl-2H-pyrazolo[3,4-b]pyridine-5-carboxylate] registered a melting point of 179 °C.

Compound `CCCC1=C(C(=O)OCC)C(c2cc(Cl)ccc2Cl)c2c[nH]nc2N1` (stereo not drawn) [Example 50, Ethyl 4-(2,5-dichlorophenyl)-4,7-dihydro-6-propyl-2H-pyrazolo[3,4-b]pyridine-5-carboxylate] yielded a melting point of 162 °C.

Compound `CCCC1=C(C#N)C(c2cccc(N3CCOCC3)c2)c2c[nH]nc2N1` (stereo not drawn) [Example 364, 5-Cyano-4,7-dihydro-4-(3-(morpholin-4-yl)phenyl)-6-propyl-2H-pyrazolo[3,4-b]pyridine] yielded a melting point of 196 to 200 °C.

In turn, `N#CC1=C(C2CCCCC2=O)Nc2n[nH]cc2C1c1cccc(C#N)c1Br` (stereo not drawn) [Example 1062, 4-(2-Bromo-3-cyanophenyl)-5-cyano-4,7-dihydro-6-(2-oxocyclohexan-1-yl)-2H-pyrazolo[3,4-b]pyridine] gave a melting point of 273 °C.

`COc1cccc(C2=C(C#N)C(c3cccc4nsnc34)c3c[nH]nc3N2)c1` (stereo not drawn) [Example 164, 4-(2,1,3-Benzothiadiazol-4-yl)-5-cyano-4,7-dihydro-6-(3-methoxyphenyl)-2H-pyrazolo[3,4-b]pyridine]: the melting point came out at 220 °C.

Turning to `CCCC1=C(C(=O)OCC)C(c2ccccc2Cl)c2cn(C(=O)Nc3ccccc3)nc2N1` (stereo not drawn) [Example 215, Ethyl 4-(2-chlorophenyl)-4,7-dihydro-2-phenylcarbamoyl-6-propyl-2H-pyrazolo[3,4-b]pyridine-5-carboxylate], the melting point fell in the range of 145 to 147 °C.

Compound `CN1CC=C(C2=C(C#N)C(c3cccc(C#N)c3Br)c3c[nH]nc3N2)CC1` (stereo not drawn) [Example 1048, 4-(2-Bromo-3-cyanophenyl)-5-cyano-4,7-dihydro-6-(1-methyl-1,2,3,6-tetrahydropyridin-4-yl)-2H-pyrazolo[3,4-b]pyridine] had a melting point of 233 °C.

Turning to `CCCCc1ccccc1C1C(C(=O)OCC)=C(CCC)Nc2[nH]ncc21` (stereo not drawn) [Example 102, Ethyl 4-(2-butylphenyl)-4,7-dihydro-6-propyl-1H-pyrazolo[3,4-b]pyridine-5-carboxylate], the melting point was determined as 175 °C.

As for `N#CC1=C(C2=CCNCC2)Nc2n[nH]cc2C1c1cccc2nonc12` (stereo not drawn) [Example 1013, 4-(2,1,3-Benzoxadiazol-4-yl)-5-cyano-4,7-dihydro-6-(1,2,3,6-tetrahydropyridin-4-yl)-2H-pyrazolo[3,4-b]pyridine], the melting point turned out to be 180 °C.

For the compound `CCCC1=C(C(=O)OCC)C(c2ccccc2Cl)c2cn(C(=O)OC(C)(C)C)nc2N1` (stereo not drawn) [Example 205, Ethyl 2-tert-butoxycarbonyl-4-(2-chlorophenyl)-4,7-dihydro-6-propyl-2H-pyrazolo[3,4-b]pyridine-5-carboxylate], the melting point is 144 to 147 °C.

Regarding `Cc1ccsc1C1=C(C#N)C(c2cccc3nonc23)c2c[nH]nc2N1` (stereo not drawn) [Example 292, 4-(2,1,3-Benzoxadiazol-4-yl)-5-cyano-4,7-dihydro-6-(3-methylthiophen-2-yl)-2H-pyrazolo[3,4-b]pyridine], the melting point was found to be 202 °C.

On to `N#CC1=C(C2CCN(C(=O)c3ccccc3)CC2)Nc2n[nH]cc2C1c1cccc2nonc12` (stereo not drawn) [Example 1026, 4-(2,1,3-Benzoxadiazol-4-yl)-6-(1-benzoylpiperidin-4-yl)-5-cyano-4,7-dihydro-2H-pyrazolo[3,4-b]pyridine], for which the melting point is 228 °C.

Turning to `CCCC1=C(C(=O)OCC)C(c2ccccc2[S+](C)[O-])c2c[nH]nc2N1` (stereo not drawn) [Example 40, Ethyl 4,7-dihydro-4-(2-methylsulfinylphenyl)-6-propyl-2H-pyrazolo[3,4-b]pyridine-5-carboxylate], the melting point is 216 °C.

Values taken from patent publication US6977262B2, “Dihydropyrazolopyridine compounds and pharmaceutical use thereof” (Mitsubishi Pharma Corporation, priority 2001, dated 2005).
